Measurements published in patent US9011839B2, “Anti-inflammatory and anti-vaginitis food composition and pharmaceutical composition containing Lactobacillus” (Glac Biotech Co., Ltd., priority 2010, dated 2015).

Legend:
vaginitis patients = settings: Barrons et al (2008); tampons, 4-8 weeks; cited from earlier work
human dendritic cells [1] = test: Inhibition of TNF-α secretion using an in vitro assay platform of dendritic cells; assay type: cell-based; settings: human dendritic cells co-cultured 48 hours with heated LAB (1:10); supernatant ELISA; Mean±SD
Experimental: A. Inhibition of TNF-α Secretion Using an In Vitro Assay Platform of Dendritic Cells.
(§1) The inhibition assay for Th17 immune response is implemented by measuring TNF-α secretion after co-culture with the above-mentioned lactic acid bacteria. The assay procedures are listed as followings: • 1. 200 mL human blood are obtained from healthy donors. • 2. 1:1 blood isolates (Ficoll-paque) and blood are centrifuged at 400 g in 18-20° C. for 30-40 min. • 3. Cells obtained from human PBMC (Peripheral Blood Mononuclear Cell) layer are washed with buffer solution 2-3 times and suspended with appropriate culture medium such as RPMI-1640. • 4. CD14^+ monocytes are purified from PBMC cells by using CD14^+ microbeads (MiniMACS system). • 5. Cells are differentiated into dendritic cells after incubating for 6-7 days by stimulating with IL-4 and GM-CSF and differentiated dendritic cells are then collected. • 6. The lactic acid bacteria strain is activated 3 days before co-culture and is then heated for thermal death at 100° C. for 30 min. • 7. The dendritic cells and the heated lactic acid bacteria strain (1:10) are co-cultured for 48 hours. • 8. The supernatant of the cell culture medium is collected and used for measuring TNF-α amount by using ELISA (enzyme-linked-immunosorbent serologic assay).
The statistic results (Mean±SD) of data are analyzed in Table 3. […]

human dendritic cells [2] = test: Stimulation of IL-10 secretion using an in vitro assay platform of dendritic cells; assay type: cell-based; settings: human dendritic cells co-cultured 48 hours with heated LAB (1:10); supernatant ELISA; Mean±SD
Experimental: B. Stimulation of IL-10 Secretion Using an In Vitro Assay Platform of Dendritic Cells.
as §1, with “In order to measure the increased amount of IL-10 secretion, human dendritic cells and” for “The inhibition assay for Th17 immune response is implemented by measuring TNF-α secretion after co-culture with”, “bacteria are co-cultured and the secretion of IL-10 is then measured so as to determine the promoting effect on inhibiting inflammatory cells from secreting cytokine.” for “bacteria.”, “donors;” for “donors.”, “The supernatant of the cell culture medium is collected and used for measuring TNF-α amount by using ELISA (enzyme-linked-immunosorbent serologic assay).” left out
The statistic results (Mean±SD) of data are analyzed in Table 4. […]

CC(=O)O [acetic acid]
vaginitis patients revealing improvement (vaginitis patients): 38%

Lipopolysaccharide [LPS]
TNF-α Secretion (human dendritic cells [1]): 1521 ± 37 pg/mL

Phytohemagglutinin [PHA]
IL-10 Secretion (human dendritic cells [2]): 9145 ± 118 pg/mL
